In ChEMBL document CHEMBL4651402, “Screening of ~5500 FDA-approved drugs and clinical candidates for anti-SARS-CoV-2 activity” (2021):

System: SARS-CoV-2
Assay: microbe, parasite or virus in culture
Conditions: Severe acute respiratory syndrome coronavirus 2, Vero C1008, 48 h

| SMILES | IC50 | IC50 (read-out: pIC50 (converted)) |
| --- | --- | --- |
| CCCSc1ccc2[nH]c(NC(=O)OC)nc2c1 [ALBENDAZOLE] | > 20 µM | > 20 µM |
| C=C1C[C@@H]2[C@H](CC[C@]3(C)C(=O)CC[C@@H]23)[C@@]2(C)C=CC(=O)C=C12 [EXEMESTANE] | > 20 µM | > 20 µM |
| C=C1c2cccc(O)c2C(=O)C2=C(O)[C@]3(O)C(=O)C(C(N)=O)=C(O)[C@@H](N(C)C)[C@@H]3[C@@H](O)[C@H]12 [METHACYCLINE] | > 20 µM | > 20 µM |
| C#CCN(C)C(C)Cc1ccccc1 (stereo not drawn) | > 20 µM | > 20 µM |
| O=C(OC1Cc2c(O)cc(O)cc2O[C@@H]1c1ccc(O)c(O)c1)c1cc(O)c(O)c(O)c1 (stereo partly drawn) | > 20 µM | > 20 µM |
| CCCCC1=NC2(CCCC2)C(=O)N1Cc1ccc(-c2ccccc2-c2nnn[nH]2)cc1 [IRBESARTAN] | > 20 µM | > 20 µM |
| CNCCc1ccc(O)c(O)c1 [DEOXIEPINEPHRINE] | > 20 µM | > 20 µM |
| CCC1(c2ccccc2)C(=O)NC(=O)N(C)C1=O (stereo not drawn) [MEPHOBARBITAL] | > 20 µM | > 20 µM |
| Nc1ccccc1NC(=O)c1ccc(CNc2nccc(-c3cccnc3)n2)cc1 [MOCETINOSTAT] | > 20 µM | > 20 µM |
| CC1CC[C@@]2(OC1)OC1CC3C4CC[C@H]5CC(O)CCC5(C)C4CC(=O)C3(C)C1C2C (stereo partly drawn) | > 20 µM | > 20 µM |
| COc1ccc2c(c1)c(CC(=O)NC(CO)C(=O)O)c(C)n2C(=O)c1ccc(Cl)cc1 (stereo not drawn) | > 20 µM | > 20 µM |
| NC(=O)OCC(COC(N)=O)c1ccccc1 [FELBAMATE] | > 20 µM | > 20 µM |
| CN(C)C[C@@H]1CCn2cc(c3ccccc32)C2=C(C(=O)NC2=O)c2cn(c3ccccc23)CCO1 [RUBOXISTAURIN] | > 20 µM | > 20 µM |
| NC(CSSCC(N)C(=O)O)C(=O)O (stereo not drawn) | > 20 µM | > 20 µM |
| NC[C@H]1CC[C@H](C(=O)O)CC1 [TRANEXAMIC ACID] | > 20 µM | > 20 µM |
| CCN(c1cc(-c2ccc(CN3CCOCC3)cc2)cc(C(=O)NCc2c(C)cc(C)[nH]c2=O)c1C)C1CCOCC1 [TAZEMETOSTAT] | > 20 µM | > 20 µM |
| Oc1cccc2cccnc12 [OXYQUINOLINE] | > 20 µM | > 20 µM |
| Cc1ccccc1C(=O)Nc1ccc(C(=O)N2CCCC(N(C)C)c3ccccc32)cc1 (stereo not drawn) [MOZAVAPTAN] | > 20 µM | > 20 µM |
| C=C[C@](C)(O)CC[C@H]1C(=C)C[C@H](OC(C)=O)[C@H]2C(C)(C)CCC[C@]12C | > 20 µM | > 20 µM |
| N#CN=C(NCCCCCCOc1ccc(Cl)cc1)Nc1ccncc1 [CHS-828] | > 20 µM | > 20 µM |
| CCN(CC)CC#CCOC(=O)[C@@](O)(c1ccccc1)C1CCCCC1 [ESOXYBUTYNIN] | > 20 µM | > 20 µM |
| CCC1(CC)C(=O)NC(=S)NC1=O | > 20 µM | > 20 µM |
| O=C(O)c1cccc2c1Nc1cc(C(F)(F)F)ccc1S2 [FLUTIAZIN] | > 20 µM | > 20 µM |
| CCCCC1(CCCC)CN(c2ccccc2)c2cc(SC)c(OCC(=O)N[C@@H](C(=O)NCC(=O)O)c3ccccc3)cc2S(=O)(=O)C1 [ELOBIXIBAT] | > 20 µM | > 20 µM |
| CC[C@H]1CN2CCc3cc(OC)c(OC)cc3[C@@H]2C[C@@H]1C[C@H]1NCCc2cc(O)c(OC)cc21 [CEPHAELINE] | > 20 µM | > 20 µM |

| SMILES | IC50 | IC50 (read-out: pIC50 (converted)) |
| --- | --- | --- |
| CC(=O)OCC(=O)[C@@]1(O)CC[C@H]2[C@@H]3CCC4=CC(=O)CC[C@]4(C)[C@H]3C(=O)C[C@@]21C [CORTISONE ACETATE] | > 20 µM | > 20 µM |
| O=P(O)(O)OCC(O)CO (stereo not drawn) | > 20 µM | > 20 µM |
| CN1CCC2=C(C1)C(c1ccccc1)c1ccccc12 (stereo not drawn) [PHENINDAMINE] | > 20 µM | > 20 µM |
| NCC1(CC(=O)O)CCCCC1 [GABAPENTIN] | > 20 µM | > 20 µM |
| CC(CCC(=O)NCCS(=O)(=O)O)C1CCC2C3C[C@H](O)[C@@H]4C[C@H](O)CC[C@]4(C)C3CC[C@]12C (stereo partly drawn) | > 20 µM | > 20 µM |
| CCN(CC)CCOC(=O)C(c1ccccc1)c1ccccc1 [ADIPHENINE] | > 20 µM | > 20 µM |
| CCN(CC)CCNC(=O)c1cc(S(C)(=O)=O)ccc1OC [TIAPRIDE] | > 20 µM | > 20 µM |
| N#C[C@@H]1CCCN1C(=O)CNC12CC3CC(CC(O)(C3)C1)C2 [VILDAGLIPTIN] | > 20 µM | > 20 µM |
| CN(C(=O)C(Cl)Cl)c1ccc(OC(=O)c2ccco2)cc1 [DILOXANIDE FUROATE] | > 20 µM | > 20 µM |
| CC1(C)OC2(C)C(O)CC1CC2O (stereo not drawn) [EPOMEDIOL] | > 20 µM | > 20 µM |
| C[C@]12O[C@H](C[C@]1(O)CO)n1c3ccccc3c3c4c(c5c6ccccc6n2c5c31)CNC4=O [LESTAURTINIB] | > 20 µM | > 20 µM |
| COc1c2c(cc3c1OCO3)CCN(C)C2 [HYDROCOTARNINE] | > 20 µM | > 20 µM |
| CC(C)(C)[C@@H](CO)NC(=O)c1nn(-c2c[n+]([O-])ccn2)c2c1C[C@@H]1C[C@H]21 [OLORINAB] | > 20 µM | > 20 µM |
| CC(=O)OC1CCC2(C)C3CCC4(C)C(CC5OC6(CCC(C)CO6)C(C)C54)C3CC[C@H]2C1 (stereo partly drawn) | > 20 µM | > 20 µM |
| C=C1c2c(Cl)ccc(O)c2C(=O)C2=C(O)[C@]3(O)C(=O)C(C(N)=O)=C(O)[C@@H](N(C)C)[C@@H]3[C@@H](O)[C@H]12 [MECLOCYCLINE] | > 20 µM | > 20 µM |
| CN(C/C=C/c1ccccc1)Cc1cccc2ccccc12 [NAFTIFINE] | > 20 µM | > 20 µM |
| CCCC1C(=O)N2C(N(C)C)=Nc3ccc(C)cc3N2C1=O (stereo not drawn) [APAZONE] | > 20 µM | > 20 µM |
| O=c1cc2c(nn1-c1ccc(Cl)cc1)-c1ccccc1[S+]([O-])CC2 (stereo not drawn) | > 20 µM | > 20 µM |
| CC1(C)SC2C(NC(=O)C(NC(=O)N3CCNC3=O)c3ccccc3)C(=O)N2C1C(=O)O (stereo not drawn) | > 20 µM | > 20 µM |
| C[C@H]1C[C@H]2[C@@H]3CCC4=CC(=O)C=C[C@]4(C)[C@@]3(Cl)[C@@H](O)C[C@]2(C)[C@@]1(O)C(=O)CO [BECLOMETHASONE] | > 20 µM | > 20 µM |
| CNC(=N)NC(=O)Nc1c(C)cccc1C [LIDAMIDINE] | > 20 µM | > 20 µM |
| Cn1c(-c2ccc3c(c2)OCO3)cc(=O)c2ccccc21 [GRAVEOLINE] | > 20 µM | > 20 µM |
| Nc1ccc(S(=O)(=O)Nc2ccccn2)cc1 [SULFAPYRIDINE] | > 20 µM | > 20 µM |
| Oc1c(Br)cc(Br)c2cccnc12 [BROXYQUINOLINE] | > 20 µM | > 20 µM |
| CC(C)n1c(/C=C/[C@@H](O)C[C@@H](O)CC(=O)O)c(-c2ccc(F)cc2)c2ccccc21.CC(C)n1c(/C=C/[C@H](O)C[C@H](O)CC(=O)O)c(-c2ccc(F)cc2)c2ccccc21 | > 20 µM | > 20 µM |

| SMILES | IC50 | IC50 (read-out: pIC50 (converted)) |
| --- | --- | --- |
| Cc1cc2cc3c(C)cc(=O)oc3c(C)c2o1 [TRIOXSALEN] | > 20 µM | > 20 µM |
| COc1ccc(-n2nc(C(N)=O)c3c2C(=O)N(c2ccc(N4CCCCC4=O)cc2)CC3)cc1 [APIXABAN] | > 20 µM | > 20 µM |
| CCN1CCN(C(=O)NC(C(=O)NC2C(=O)N3C2SC(C)(C)C3C(=O)O)c2ccccc2)C(=O)C1=O (stereo not drawn) | > 20 µM | > 20 µM |
| O=C1C=C2C=C[C@@H]3C[C@@]2(O1)[C@H]1CCCCN31 [SECURININE] | > 20 µM | > 20 µM |
| C[C@]1(C(=O)N(CCCC(=O)O)Cc2cccc(Cl)c2)CCN1C(=O)c1csc2ccccc12 [GLPG-0974] | > 20 µM | > 20 µM |
| CCNCC(O)c1cccc(O)c1 (stereo not drawn) [ETILEFRINE] | > 20 µM | > 20 µM |
| CCC(N)C(O)c1ccc(O)c(O)c1 (stereo not drawn) [ETHYLNOREPINEPHRINE] | > 20 µM | > 20 µM |
| CN1C(=O)CC[C@H]1c1cccnc1 [COTININE] | > 20 µM | > 20 µM |
| Cc1cccn2c(=O)c(-c3nnn[nH]3)cnc12 [PEMIROLAST] | > 20 µM | > 20 µM |
| CC1(C)Oc2ccc(C#N)cc2[C@@H](N2CCCC2=O)[C@@H]1O [LEVCROMAKALIM] | > 20 µM | > 20 µM |
| COc1ccc2[nH]c([S+]([O-])Cc3ncc(C)c(OC)c3C)nc2n1 (stereo not drawn) [TENATOPRAZOLE] | > 20 µM | > 20 µM |
| Cc1nc(N2CCN(C)CC2)c2nc(-c3ccccc3Cl)n(C3CCOCC3)c2n1 [LY2828360] | > 20 µM | > 20 µM |
| COc1cc(=O)n(C)c2c(OCC(O)C(C)(C)O)cccc12 (stereo not drawn) | > 20 µM | > 20 µM |
| Cc1ccccc1C(OCCN(C)C)c1ccccc1 (stereo not drawn) [ORPHENADRINE] | > 20 µM | > 20 µM |
| CCOc1ccccc1OCCN[C@H](C)Cc1ccc(OC)c(S(N)(=O)=O)c1 [TAMSULOSIN] | > 20 µM | > 20 µM |
| O=c1n(CC2CO2)c(=O)n(CC2CO2)c(=O)n1CC1CO1 (stereo not drawn) [TEROXIRONE] | > 20 µM | > 20 µM |
| COCCOc1c(OC)cc(Cc2cnc(N)nc2N)cc1OC [TETROXOPRIM] | > 20 µM | > 20 µM |
| CC(=O)Nc1ccc(S(=O)(=O)Nc2ccc([N+](=O)[O-])cc2)cc1 | > 20 µM | > 20 µM |
| OC(CNc1ccccn1)c1ccccc1 (stereo not drawn) [PHENYRAMIDOL] | > 20 µM | > 20 µM |
| NC(=O)CN1CC(c2ccccc2)CC1=O (stereo not drawn) | > 20 µM | > 20 µM |
| CC(Cc1ccccc1)(NC(=O)CN)c1ccccc1 (stereo not drawn) [REMACEMIDE] | > 20 µM | > 20 µM |
| C[C@H]1[C@H](OC(=O)CCC(=O)O)O[C@@H]2O[C@@]3(C)CC[C@H]4[C@H](C)CC[C@@H]1[C@@]24OO3 [ARTESUNATE] | > 20 µM | > 20 µM |
| Cc1ccc(S(=O)(=O)NC(=O)NC2CCCCCCC2)cc1 [GLYOCTAMIDE] | > 20 µM | > 20 µM |
| COCCNCc1ccc(-c2cc3nccc(Oc4ccc(NC(=S)NC(=O)Cc5ccc(F)cc5)cc4F)c3s2)nc1 [GLESATINIB] | > 20 µM | > 20 µM |
